{"source": "the supplement of paper PMC10307832", "test_in_all_cases": "relative viability (nuclei count vs DMSO), 5 days (fraction); higher = more cells survive", "key": {"SW 900": {"test_system": "SW 900", "procedure,_shortened": "(§1)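 Relative viability divides the nuclei count in treated wells by that in vehicle wells. Lung cancer cell lines were seeded in 1536-well plates, dosed by pin tool the next day, and fixed and stained after 5 days in one step with final 0.05% Triton X-100, 1% formaldehyde and 1 ug/ml Hoechst. Dosing was a single drug or a fixed anchor-drug dose plus five library-drug doses (not always all listed) in √10 steps, and values are medians of duplicate plates imaged at 4×.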"}, "H3255": {"test_system": "H3255", "procedure,_shortened": "as §1"}, "LXF-289": {"test_system": "LXF-289", "procedure,_shortened": "as §1"}, "NCI-H441": {"test_system": "NCI-H441", "procedure,_shortened": "as §1"}, "NCI-H1734": {"test_system": "NCI-H1734", "procedure,_shortened": "as §1"}, "ChaGo-K-1": {"test_system": "ChaGo-K-1", "procedure,_shortened": "as §1"}, "NCI-H522": {"test_system": "NCI-H522", "procedure,_shortened": "as §1"}, "NCI-H2170": {"test_system": "NCI-H2170", "procedure,_shortened": "as §1"}, "CAL-12T": {"test_system": "CAL-12T", "procedure,_shortened": "as §1"}, "HOP-62": {"test_system": "HOP-62", "procedure,_shortened": "as §1"}, "NCI-H647": {"test_system": "NCI-H647", "procedure,_shortened": "as §1"}, "LK-2": {"test_system": "LK-2", "procedure,_shortened": "as §1"}, "NCI-H322M": {"test_system": "NCI-H322M", "procedure,_shortened": "as §1"}, "NCI-H2087": {"test_system": "NCI-H2087", "procedure,_shortened": "as §1"}, "NCI-H1755": {"test_system": "NCI-H1755", "procedure,_shortened": "as §1"}, "NCI-H2009": {"test_system": "NCI-H2009", "procedure,_shortened": "as §1"}, "EMC-BAC-2": {"test_system": "EMC-BAC-2", "procedure,_shortened": "as §1"}, "PC-14": {"test_system": "PC-14", "procedure,_shortened": "as §1"}, "NCI-H596": {"test_system": "NCI-H596", "procedure,_shortened": "as §1"}, "201T": {"test_system": "201T", "procedure,_shortened": "as §1"}, "NCI-H3122": {"test_system": "NCI-H3122", "procedure,_shortened": "as §1"}, "NCI-H2126": {"test_system": "NCI-H2126", "procedure,_shortened": "as §1"}, "NCI-H1651": {"test_system": "NCI-H1651", "procedure,_shortened": "as §1"}}}
{"smiles": "CCCCCCCCCCCC1=C(O)C(=O)C=C(O)C1=O", "note": "[Embelin] + CC(=O)Nc1cccc(-n2c(=O)n(C3CC3)c(=O)c3c(Nc4ccc(I)cc4F)n(C)c(=O)c(C)c32)c1 [Trametinib] (partner 0.02 µM)", "values": [{"measurement": "relative viability", "setting": "SW 900; first compound 0.08 µM", "result": 0.779}, {"measurement": "relative viability", "setting": "SW 900; first compound 0.8 µM", "result": 0.962}, {"measurement": "relative viability", "setting": "SW 900; first compound 2.53 µM", "result": 0.781}, {"measurement": "relative viability", "setting": "SW 900; first compound 8 µM", "result": 1.15}, {"measurement": "relative viability", "setting": "H3255; first compound 0.08 µM", "result": 0.601}, {"measurement": "relative viability", "setting": "H3255; first compound 0.8 µM", "result": 0.764}, {"measurement": "relative viability", "setting": "H3255; first compound 2.53 µM", "result": 0.717}, {"measurement": "relative viability", "setting": "H3255; first compound 8 µM", "result": 0.647}, {"measurement": "relative viability", "setting": "LXF-289; first compound 0.08 µM", "result": 0.715}, {"measurement": "relative viability", "setting": "LXF-289; first compound 0.8 µM", "result": 0.737}, {"measurement": "relative viability", "setting": "LXF-289; first compound 2.53 µM", "result": 0.722}, {"measurement": "relative viability", "setting": "LXF-289; first compound 8 µM", "result": 0.676}, {"measurement": "relative viability", "setting": "NCI-H441; first compound 0.08 µM", "result": 0.399}, {"measurement": "relative viability", "setting": "NCI-H441; first compound 0.8 µM", "result": 0.584}, {"measurement": "relative viability", "setting": "NCI-H441; first compound 2.53 µM", "result": 0.552}, {"measurement": "relative viability", "setting": "NCI-H441; first compound 8 µM", "result": 0.465}, {"measurement": "relative viability", "setting": "NCI-H1734; first compound 0.08 µM", "result": 0.686}, {"measurement": "relative viability", "setting": "NCI-H1734; first compound 0.8 µM", "result": 0.789}, {"measurement": "relative viability", "setting": "NCI-H1734; first compound 2.53 µM", "result": 0.777}, {"measurement": "relative viability", "setting": "NCI-H1734; first compound 8 µM", "result": 0.689}, {"measurement": "relative viability", "setting": "ChaGo-K-1; first compound 0.08 µM", "result": 0.966}, {"measurement": "relative viability", "setting": "ChaGo-K-1; first compound 0.8 µM", "result": 0.871}, {"measurement": "relative viability", "setting": "ChaGo-K-1; first compound 2.53 µM", "result": 0.963}, {"measurement": "relative viability", "setting": "ChaGo-K-1; first compound 8 µM", "result": 0.922}, {"measurement": "relative viability", "setting": "NCI-H522; first compound 0.08 µM", "result": 0.637}, {"measurement": "relative viability", "setting": "NCI-H522; first compound 0.8 µM", "result": 0.817}, {"measurement": "relative viability", "setting": "NCI-H522; first compound 2.53 µM", "result": 0.719}, {"measurement": "relative viability", "setting": "NCI-H522; first compound 8 µM", "result": 0.765}, {"measurement": "relative viability", "setting": "NCI-H2170; first compound 0.08 µM", "result": 0.946}, {"measurement": "relative viability", "setting": "NCI-H2170; first compound 0.8 µM", "result": 0.877}, {"measurement": "relative viability", "setting": "NCI-H2170; first compound 2.53 µM", "result": 1.11}, {"measurement": "relative viability", "setting": "NCI-H2170; first compound 8 µM", "result": 0.9}, {"measurement": "relative viability", "setting": "CAL-12T; first compound 0.08 µM", "result": 0.376}, {"measurement": "relative viability", "setting": "CAL-12T; first compound 0.8 µM", "result": 0.386}, {"measurement": "relative viability", "setting": "CAL-12T; first compound 2.53 µM", "result": 0.283}, {"measurement": "relative viability", "setting": "CAL-12T; first compound 8 µM", "result": 0.295}, {"measurement": "relative viability", "setting": "HOP-62; first compound 0.08 µM", "result": 0.402}, {"measurement": "relative viability", "setting": "HOP-62; first compound 0.8 µM", "result": 0.472}, {"measurement": "relative viability", "setting": "HOP-62; first compound 2.53 µM", "result": 0.476}, {"measurement": "relative viability", "setting": "HOP-62; first compound 8 µM", "result": 0.379}, {"measurement": "relative viability", "setting": "NCI-H647; first compound 0.08 µM", "result": 0.489}, {"measurement": "relative viability", "setting": "NCI-H647; first compound 0.8 µM", "result": 0.528}, {"measurement": "relative viability", "setting": "NCI-H647; first compound 2.53 µM", "result": 0.638}, {"measurement": "relative viability", "setting": "NCI-H647; first compound 8 µM", "result": 0.446}, {"measurement": "relative viability", "setting": "LK-2; first compound 0.08 µM", "result": 0.793}, {"measurement": "relative viability", "setting": "LK-2; first compound 0.8 µM", "result": 1.02}, {"measurement": "relative viability", "setting": "LK-2; first compound 2.53 µM", "result": 0.945}, {"measurement": "relative viability", "setting": "LK-2; first compound 8 µM", "result": 0.954}, {"measurement": "relative viability", "setting": "NCI-H322M; first compound 0.08 µM", "result": 0.53}, {"measurement": "relative viability", "setting": "NCI-H322M; first compound 0.8 µM", "result": 0.543}, {"measurement": "relative viability", "setting": "NCI-H322M; first compound 2.53 µM", "result": 0.516}, {"measurement": "relative viability", "setting": "NCI-H322M; first compound 8 µM", "result": 0.49}, {"measurement": "relative viability", "setting": "NCI-H2087; first compound 0.08 µM", "result": 0.147}, {"measurement": "relative viability", "setting": "NCI-H2087; first compound 0.8 µM", "result": 0.225}, {"measurement": "relative viability", "setting": "NCI-H2087; first compound 2.53 µM", "result": 0.233}, {"measurement": "relative viability", "setting": "NCI-H2087; first compound 8 µM", "result": 0.182}, {"measurement": "relative viability", "setting": "NCI-H1755; first compound 0.08 µM", "result": 0.816}, {"measurement": "relative viability", "setting": "NCI-H1755; first compound 0.8 µM", "result": 0.75}, {"measurement": "relative viability", "setting": "NCI-H1755; first compound 2.53 µM", "result": 0.841}, {"measurement": "relative viability", "setting": "NCI-H1755; first compound 8 µM", "result": 0.723}, {"measurement": "relative viability", "setting": "NCI-H2009; first compound 0.08 µM", "result": 0.335}, {"measurement": "relative viability", "setting": "NCI-H2009; first compound 0.8 µM", "result": 0.306}, {"measurement": "relative viability", "setting": "NCI-H2009; first compound 2.53 µM", "result": 0.268}, {"measurement": "relative viability", "setting": "NCI-H2009; first compound 8 µM", "result": 0.296}, {"measurement": "relative viability", "setting": "EMC-BAC-2; first compound 0.08 µM", "result": 0.845}, {"measurement": "relative viability", "setting": "EMC-BAC-2; first compound 0.8 µM", "result": 1.08}, {"measurement": "relative viability", "setting": "EMC-BAC-2; first compound 2.53 µM", "result": 0.883}, {"measurement": "relative viability", "setting": "EMC-BAC-2; first compound 8 µM", "result": 0.913}, {"measurement": "relative viability", "setting": "PC-14; first compound 0.08 µM", "result": 0.728}, {"measurement": "relative viability", "setting": "PC-14; first compound 0.8 µM", "result": 0.839}, {"measurement": "relative viability", "setting": "PC-14; first compound 2.53 µM", "result": 0.982}, {"measurement": "relative viability", "setting": "PC-14; first compound 8 µM", "result": 0.724}, {"measurement": "relative viability", "setting": "NCI-H596; first compound 0.08 µM", "result": 0.832}, {"measurement": "relative viability", "setting": "NCI-H596; first compound 0.8 µM", "result": 0.796}, {"measurement": "relative viability", "setting": "NCI-H596; first compound 2.53 µM", "result": 0.795}, {"measurement": "relative viability", "setting": "NCI-H596; first compound 8 µM", "result": 0.748}, {"measurement": "relative viability", "setting": "201T; first compound 0.08 µM", "result": 0.698}, {"measurement": "relative viability", "setting": "201T; first compound 0.8 µM", "result": 0.726}, {"measurement": "relative viability", "setting": "201T; first compound 2.53 µM", "result": 0.731}, {"measurement": "relative viability", "setting": "201T; first compound 8 µM", "result": 0.731}, {"measurement": "relative viability", "setting": "NCI-H3122; first compound 0.08 µM", "result": 0.251}, {"measurement": "relative viability", "setting": "NCI-H3122; first compound 0.8 µM", "result": 0.253}, {"measurement": "relative viability", "setting": "NCI-H3122; first compound 2.53 µM", "result": 0.238}, {"measurement": "relative viability", "setting": "NCI-H3122; first compound 8 µM", "result": 0.263}, {"measurement": "relative viability", "setting": "NCI-H2126; first compound 0.08 µM", "result": 0.495}, {"measurement": "relative viability", "setting": "NCI-H2126; first compound 0.8 µM", "result": 0.548}, {"measurement": "relative viability", "setting": "NCI-H2126; first compound 2.53 µM", "result": 0.553}, {"measurement": "relative viability", "setting": "NCI-H2126; first compound 8 µM", "result": 0.546}, {"measurement": "relative viability", "setting": "NCI-H1651; first compound 0.08 µM", "result": 0.845}, {"measurement": "relative viability", "setting": "NCI-H1651; first compound 0.8 µM", "result": 0.905}, {"measurement": "relative viability", "setting": "NCI-H1651; first compound 2.53 µM", "result": 0.824}, {"measurement": "relative viability", "setting": "NCI-H1651; first compound 8 µM", "result": 0.83}]}
